Results from patent US12594267B2, “Capsid inhibitors for the treatment of HIV” (Gilead Sciences, Inc., priority 2018, dated 2026).

Assay: PK after subcutaneous administration of solutions in dogs
Type: in vivo, Beagle dog
Settings: for Plasma concentration: SC 12 mg/kg, 300 mg/mL (22.6% water/50% PEG 300/1.1% NaOH/26.3% Formula (Ia))
Protocol: Formulations containing the compound of Formula (Ia) were prepared as aqueous solutions or oral formulations and administered subcutaneously to rats, dogs, cynomolgus monkey, and/or rhesus monkey.
A solution of the compound of Formula (Ia) in 10% ethanol, 13% water, and 77% PEG 200 (400 mg/mL) was prepared. The solution was administered subcutaneously to dogs at a dose of 12 mg/kg and rats at a dose of 50 mg/kg and the pharmacokinetic (PK) profile was determined. […] In both species, plasma concentrations of the compound of Formula (Ia) were maintained above the target trough concentration of 20 nM (corresponding to an IQ of 5) for at least 84 days (12 weeks).
A solution of the compound of Formula (Ia) in 15% water and 85.0 PEG 300 (400 mg/mL) was prepared. The solution was administered subcutaneously to male beagle dogs at a dose level of 12 mg/kg and dose volume of […] and the pharmacokinetic (PK) profile was determined.
A solution of the compound of Formula (a) sodium salt in water and 300 (300 mg/mL) was prepared that contained 22.6% water/50% PEG 300/1.1% NaOH/26.3% Formula (Ia). The solution was administered subcutaneously to male beagle dogs at a dose level of 12 mg/kg and dose volume of […] and the pharmacokinetic (PK) profile was determined.
A 300 mg/ml solution of a compound of Formula (Ia) having 9.8 w/w % water, 65.0 w/w % PEG 300, and 25.2 w/w % of the compound of Formula (Ia) was prepared. The solution was administered subcutaneously to rats at a dose of 50 mg/kg and to dogs at a dose of 12 mg/kg and the pharmacokinetic (PK) profile was determined. […] In the rat, plasma concentrations of the compound of Formula (Ia) were maintained above the target trough concentration of 20 nM for at least 168 days (24 weeks). In the dog, plasma concentrations of the compound of Formula (Ia) were maintained above the target trough concentration of 20 nM for at least 84 days (12 weeks).
(§1) A 150 mg/ml solution of a compound of Formula (Ia) having 27.92 w/w % water, 58.04 w/w % PEG 300, 13.47 w/w % of a compound of Formula (Ia), and 1.1 w/w % NaOH was prepared. The solution was administered subcutaneously to rats at a dose of 50 mg/kg and to dogs at a dose of 12 mg/kg and the pharmacokinetic (PK) profile was determined. […] In the rat, plasma concentrations of the compound of Formula (Ia) were maintained above the target trough concentration of 20 nM for at least 126 days (18 weeks). In the dog, plasma concentrations of the compound of Formula (Ia) were maintained above the target trough concentration of 20 nM for at least 56 days (8 weeks).
as §1, with “300” for “150”, “23.2” for “27.92”, “50.0” for “58.04”, “25.7” for “13.47”
A 50 mg/ml solution of a compound of Formula (Ia) having 30.07 w/w % water, 64.40 w/w % PEG 300, 4.68 w/w % of a sodium salt of the compound of Formula (Ia), and 0.85 w/w % poloxamer 188 was prepared. The solution was administered subcutaneously to rats at a dose of 50 mg/kg and to dogs at a dose of 6 mg/kg and the pharmacokinetic (PK) profile was determined. […] In the rat, plasma concentrations of the compound of Formula (Ia) were maintained above the target trough concentration of 20 nM for at least 28 days (4 weeks). In the dog, plasma concentrations of the compound of Formula (Ia) were maintained above the target trough concentration of 20 nM for at least 14 days (2 weeks). […]

[1] = male beagle dog, single SC 12 mg/kg, 300 mg/mL, 50, 22.6, 1.1, 26.3 w/w % PEG300:Water:NaOH:Formula (Ia), mean ± SD, n=3

CC(C)(C#Cc1ccc(-c2ccc(Cl)c3c([N-]S(C)(=O)=O)nn(CC(F)(F)F)c23)c([C@H](Cc2cc(F)cc(F)c2)NC(=O)Cn2nc(C(F)(F)F)c3c2C(F)(F)[C@@H]2C[C@H]32)n1)S(C)(=O)=O.[Na+] [Formula (Ia) sodium salt]
Plasma concentration (dog #1, 0 h): BLQ
Plasma concentration (dog #1, 1.0 h): 14.0 nM
Plasma concentration (dog #1, 3.0 h): 26.0 nM
Plasma concentration (dog #1, 8.0 h): 56.3 nM
Plasma concentration (dog #1, 24 h): 57.1 nM
Plasma concentration (dog #1, 48 h): 71.1 nM
Plasma concentration (dog #1, 72 h): 51.5 nM
Plasma concentration (dog #1, 96 h): 46.4 nM
Plasma concentration (dog #1, 168 h): 47.7 nM
Plasma concentration (dog #2, 0 h): BLQ
Plasma concentration (dog #2, 1.0 h): 7.2 nM
Plasma concentration (dog #2, 3.0 h): 17.0 nM
Plasma concentration (dog #2, 8.0 h): 25.8 nM
Plasma concentration (dog #2, 24 h): 25.4 nM
Plasma concentration (dog #2, 48 h): 29.0 nM
Plasma concentration (dog #2, 72 h): 16.2 nM
Plasma concentration (dog #2, 96 h): 14.0 nM
Plasma concentration (dog #2, 168 h): 13.6 nM
Plasma concentration (dog #3, 0 h): BLQ
Plasma concentration (dog #3, 1.0 h): 8.6 nM
Plasma concentration (dog #3, 3.0 h): 16.8 nM
Plasma concentration (dog #3, 8.0 h): 32.1 nM
Plasma concentration (dog #3, 24 h): 54.5 nM
Plasma concentration (dog #3, 48 h): 57.8 nM
Plasma concentration (dog #3, 72 h): 58.0 nM
Plasma concentration (dog #3, 96 h): 59.2 nM
Plasma concentration (dog #3, 168 h): 43.1 nM
Plasma concentration (dog mean, n=3, 1.0 h): 10.0 nM
Plasma concentration (dog mean, n=3, 3.0 h): 19.9 nM
Plasma concentration (dog mean, n=3, 8.0 h): 38.1 nM
Plasma concentration (dog mean, n=3, 24 h): 45.7 nM
Plasma concentration (dog mean, n=3, 48 h): 52.6 nM
Plasma concentration (dog mean, n=3, 72 h): 41.9 nM
Plasma concentration (dog mean, n=3, 96 h): 39.9 nM
Plasma concentration (dog mean, n=3, 168 h): 34.8 nM
AUC0-24h [1]: 0.85 ± 0.31 µM·h
AUC0-48h [1]: 2.03 ± 0.76 µM·h
AUC0-72h [1]: 3.16 ± 1.27 µM·h
AUC0-168h [1]: 6.83 ± 3.24 µM·h
